Experiment [1] can be described thus: A Cell Based Secondary Assay To Explore Cytotoxicity of Compounds that Sensitize Mycobacterium Tuberculosis to Beta-Lactam Antibiotics. The experiment is classed as functional.
Experiment [2] addresses T1, Alkaline phosphatase, tissue-nonspecific isozyme (Homo sapiens, UniProt P05186).
T1 sequence (P05186 whole entry): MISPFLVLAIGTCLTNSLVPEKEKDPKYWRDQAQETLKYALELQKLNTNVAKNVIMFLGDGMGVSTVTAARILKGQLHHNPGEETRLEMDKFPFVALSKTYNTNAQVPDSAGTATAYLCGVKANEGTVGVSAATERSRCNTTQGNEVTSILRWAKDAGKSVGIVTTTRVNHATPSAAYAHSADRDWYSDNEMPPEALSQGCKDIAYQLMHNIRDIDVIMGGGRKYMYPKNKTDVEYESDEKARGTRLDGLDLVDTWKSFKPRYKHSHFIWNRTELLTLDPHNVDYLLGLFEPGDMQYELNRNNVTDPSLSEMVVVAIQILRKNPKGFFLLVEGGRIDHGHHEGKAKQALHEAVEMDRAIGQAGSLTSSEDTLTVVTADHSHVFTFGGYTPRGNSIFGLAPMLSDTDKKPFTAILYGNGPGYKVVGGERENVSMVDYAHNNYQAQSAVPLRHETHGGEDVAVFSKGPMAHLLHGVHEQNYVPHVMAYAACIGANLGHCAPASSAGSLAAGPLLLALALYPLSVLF

A short description of experiment [3]: A cytotoxicity screen of small molecule inhibitors of the PhoP region in Salmonella typhi identified in the primary screen. [Related pubchem assays: 1850, 1864, 1985 ]. In kind it is functional.
Experiment [4] deals with Streptococcus sp. 'group A'. Briefly: Streptococcus pyogenes SK(-)GAS viability under kanamycin – luminescence, BacTiterGlo, confirmation, counter-screen for streptokinase expression inhibitor project, dose response (AID 1900). In kind it is functional, organism-based.
The test system of the next experiment is Streptococcus. Briefly: GAS UMAA2166 growth inhibition – luminescence, BacTiterGlo, counter-screen for streptokinase expression inhibitor project, dose response (AID 1915).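 Also: potency for reduction of bacterial viability or growth.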 The experiment is classed as functional, organism-based. In general terms: A counterscreen serves to expose hits that act by an unwanted route or on another target.
Another experiment relates to Vero. Put plainly: viability of Vero cells under compound – cytotoxicity control for flavivirus capping enzyme inhibitors (AID 588742). In kind it is functional. The settings on record: Chlorocebus sabaeus.
A further experiment has as its target Genome polyprotein (dengue virus type 2, UniProt P29990). Put plainly: flavivirus cap methylation enzyme inhibition – biochemical, confirmation dose response, primary screen (AID 588689). In kind it is functional.
The next experiment addresses X-box-binding protein 1 (Homo sapiens, UniProt P17861). In kind it is functional, Cricetulus griseus.
The next experiment has as its target Cytochrome P450 2C19 (Homo sapiens, UniProt P33261). Put plainly: Cytochrome panel assay with activity outcomes. Panel member name: p450-cyp2c19 Compounds with AC50 equal or less than 10 uM are considered active. The experiment is classed as functional. To be noted: read-out: AC50.

The term CC50 denotes the concentration giving 50% cytotoxicity. A word on the EC50: it is the concentration that produces a half-maximal response. What is called IC50 is the concentration at which inhibition is half-maximal. What is called AC50 is the concentration giving half of the maximal activity seen.

Calls of active or inactive are those of the source.
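For Absolute IC50 (XBP1) in this document: confirmatory dose-response counter-screen serving a CHOP assay.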

Sequence of X-box-binding protein 1 (P17861 whole entry): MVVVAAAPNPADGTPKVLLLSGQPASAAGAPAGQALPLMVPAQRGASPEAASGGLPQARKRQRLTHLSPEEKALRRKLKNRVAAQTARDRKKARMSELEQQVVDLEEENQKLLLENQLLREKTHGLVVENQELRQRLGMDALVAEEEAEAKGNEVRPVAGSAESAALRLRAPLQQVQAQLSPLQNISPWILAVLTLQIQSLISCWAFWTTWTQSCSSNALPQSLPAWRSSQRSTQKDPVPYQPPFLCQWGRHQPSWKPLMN
Sequence of Cytochrome P450 2C19 (P33261 whole entry): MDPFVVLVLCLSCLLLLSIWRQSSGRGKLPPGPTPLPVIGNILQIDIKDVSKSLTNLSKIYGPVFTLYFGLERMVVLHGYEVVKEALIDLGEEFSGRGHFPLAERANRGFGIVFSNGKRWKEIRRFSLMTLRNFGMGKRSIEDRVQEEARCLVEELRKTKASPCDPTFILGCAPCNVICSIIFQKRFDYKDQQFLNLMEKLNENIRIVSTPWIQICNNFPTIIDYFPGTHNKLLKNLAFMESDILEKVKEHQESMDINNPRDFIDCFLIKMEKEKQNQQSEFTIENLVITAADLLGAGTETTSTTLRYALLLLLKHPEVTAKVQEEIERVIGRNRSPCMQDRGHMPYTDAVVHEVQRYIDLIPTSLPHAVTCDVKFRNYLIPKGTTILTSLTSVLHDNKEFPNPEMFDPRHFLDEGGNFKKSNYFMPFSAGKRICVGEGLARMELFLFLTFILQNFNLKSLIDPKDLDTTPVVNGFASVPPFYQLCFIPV
Sequence of Genome polyprotein (P29990 2492-3391 limits assumed): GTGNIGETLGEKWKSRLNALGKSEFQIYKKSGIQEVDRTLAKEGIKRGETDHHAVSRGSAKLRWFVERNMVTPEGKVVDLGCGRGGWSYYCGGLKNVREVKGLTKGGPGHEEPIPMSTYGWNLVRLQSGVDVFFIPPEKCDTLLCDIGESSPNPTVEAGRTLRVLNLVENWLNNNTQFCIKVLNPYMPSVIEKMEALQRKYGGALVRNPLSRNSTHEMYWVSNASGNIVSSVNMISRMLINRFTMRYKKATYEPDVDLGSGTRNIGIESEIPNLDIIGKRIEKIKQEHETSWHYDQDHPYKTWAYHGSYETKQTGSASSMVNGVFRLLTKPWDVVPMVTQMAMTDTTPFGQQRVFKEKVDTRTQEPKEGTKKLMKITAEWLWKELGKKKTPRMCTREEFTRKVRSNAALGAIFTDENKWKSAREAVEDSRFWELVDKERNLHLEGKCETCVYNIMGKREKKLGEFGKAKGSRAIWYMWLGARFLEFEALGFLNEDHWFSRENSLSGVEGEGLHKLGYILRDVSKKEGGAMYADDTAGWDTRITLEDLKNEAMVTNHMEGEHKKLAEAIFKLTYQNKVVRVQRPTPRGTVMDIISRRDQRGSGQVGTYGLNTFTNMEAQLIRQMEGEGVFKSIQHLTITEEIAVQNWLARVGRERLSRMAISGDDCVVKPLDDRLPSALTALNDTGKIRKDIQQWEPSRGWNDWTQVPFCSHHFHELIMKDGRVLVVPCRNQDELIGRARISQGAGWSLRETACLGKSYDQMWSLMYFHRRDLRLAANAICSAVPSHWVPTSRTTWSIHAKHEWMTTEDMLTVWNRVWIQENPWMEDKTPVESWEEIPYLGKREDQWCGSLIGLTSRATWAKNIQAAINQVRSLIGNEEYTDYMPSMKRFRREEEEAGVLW

On to `CCN(CC)C(=O)C1CCCN(c2ccc([N+](=O)[O-])cc2/C=N/NC(=O)c2cccc([N+](=O)[O-])c2)C1` (stereo unspecified), for which the CC50 in experiment [1] is > 40 µM (active).

Turning to `O=C(COC(=O)C1CC(=O)N(Cc2ccccc2)C1)Nc1ccc(Cl)cc1F` (stereo unspecified), the EC50 in [2] is given as > 100 µM (not active).

On to `Clc1ccc2[nH]c(N3CCCCC3)nc2c1`, for which the half-maximal effective concentration (EC50) in experiment [3] is > 50 µM (active).

In the case of `Fc1cccc2sc(Nc3nnc(-c4ccccc4)o3)nc12`, the figures for the concentration for a half-maximal effect (EC50) (in experiment [4]; in [2]; in the experiment on Streptococcus) were 2 µM (active), 44.2 µM (active) and 6.97 µM (active), respectively. Besides, in the experiment on Vero, the CC50 is 27 µM (active). In addition, the half-maximal inhibitory concentration (IC50) on Genome polyprotein was 50.2 µM (active).

As to `CCOc1cc(S(=O)(=O)Nc2cc(C)cc(C)c2)ccc1Cl`, at X-box-binding protein 1, the “Absolute IC50 (XBP1)” value came out at 10 µM.

As for `CCOC(=O)c1[nH]c2ccc(Cl)cc2c1-c1ccccc1`, on X-box-binding protein 1, the “Absolute IC50 (XBP1)” value was 10 µM. Besides, the half-maximal activity concentration (AC50) at Cytochrome P450 2C19 was 4.47 µM (inconclusive).

The record behind these values is ChEMBL document CHEMBL1201862, “PubChem BioAssay data set” (2004).
